# Where two headings read alike, the source gives them in different places.
# Columns and labels:
# [1] = test system: Plasmodium falciparum 3D7 asexual blood stage; assay: microbe, parasite or virus in culture
# HepG2 = conditions: cited from earlier work
# HEK293 cells = assay: HEK293 resazurin cell cytotoxicity assay; conditions: Homo sapiens; for inhibition at 20 µM: HEK293, read-out: HEK % Inhibition 20uM/IC50 Discovery Biology; for IC50: HEK293, read-out: HEK % Inhibition 20uM/IC50 Discovery Biology (IA)
# P. falciparum ABS = conditions: cited from earlier work; for IC50: P. falciparum 3D7, ref PBox supporting information, read-out: Pf 3D7 Pbox IC50; for EC50: ChEMBL Data, P. falciparum, read-out: TCMDC (ref 93) EX50
# [2] = test system: T. b. brucei 427 bloodstream trypanosomes; assay: T. b. brucei resazurin viability assay; format: cell-based, Trypanosoma brucei brucei; conditions: Trypanosoma brucei; read-out: T b.brucei Discovery Biology IC50
# [3] = 3D7, read-out: Antiplasmodial IC50 (ABS), PBox compounds, P. falciparum 3D7
# [4] = read-out: HepG2 PBox CC50 µM, HepG2 cytotoxicity, ref PBox supporting information
# [5] = ref Pbox supporting information
# [6] = read-out: HepG2 PBox CC50, HepG2, ref PBox supporting information
# [7] = HepG2, ref PBox supporting information
compound,measurement,setting,value
Brc1cncc(-c2cc(NCCCn3ccnc3)nc(-c3ccccc3)n2)c1 [MMV661713],IC50,[1]; [3],1.49 µM
same,IC50,"[1]; 3D7, read-out: activity against P. falciparum (novel antiplasmodial actives of the tuberculosis set)",< 2 µM
Cn1c(=O)c2c(S(C)(=O)=O)snc2n(C)c1=O [MMV687251],CC50,HepG2; [4],1.1 µM
same,inhibition at 20 µM,HEK293 cells,100%
Nc1ncc(Br)cc1-c1nc2cc(Cl)cnc2[nH]1 [MMV676358],IC50,P. falciparum ABS,1.5 µM
same,IC50,HEK293 cells,> 20 µM
CC(C)c1ncc(-c2ccncc2)c([C@H]2CC[C@H](CNC(=O)c3cccnc3)CC2)n1 [MMV676442],EC50,P. falciparum ABS,0.78 µM
same,IC50,P. falciparum ABS,0.84 µM
same,IC50,HEK293 cells,> 20 µM
O=C(NCCc1ccccc1)c1cc(-c2cccnc2)cnc1NCC1CC1 [MMV026490],EC50,P. falciparum ABS,0.85 µM
same,IC50,P. falciparum ABS,1.29 µM
same,IC50,[2],6.02 µM
same,IC50,HEK293 cells,> 20 µM
CN1CCN(CCCOc2ncc(Nc3ncc(-c4ccc(C(F)(F)F)c(F)c4)nc3C(N)=O)cn2)CC1 [MMV687812],IC50,"[1]; 3D7, read-out: Pf 3D7 Discovery Biology IC50 µM, P. falciparum 3D7 asexual blood stage, Discovery Biology",1.6 µM
same,CC50,HepG2; [4],3.9 µM
same,inhibition at 20 µM,HEK293 cells,100%
c1cncc(NCc2ccc(-c3cc4ccncc4cc3OC3CCNCC3)s2)c1 [MMV023969],EC50,P. falciparum ABS; TCMDC set,0.98 µM
same,IC50,[1]; [3],0.59 µM
same,CC50,HepG2; [4],8 µM
same,inhibition at 20 µM,HEK293 cells,86%
"CN1CCC[C@@H]1CCO[C@](C)(c1ccccc1)c1ccc(Cl)cc1 [MMV637229, clemastine, reference compound]",HepG2 PBox CC20 μMc,HepG2,9.3 µM
CC(=O)N(CCN(C(=O)c1ccc(F)cc1)c1ccccc1)c1ccccc1 [MMV676064],HepG2 PBox CC20 μMc,HepG2; [5],39 µM
c1coc(CNc2nc(N3CCCCC3)nc3ccccc23)c1 [MMV676401],CC50,HepG2; [4],18.6 µM
O=C(c1ccc(F)cc1)N(CCNc1ccccc1)c1ccccc1 [MMV676204],HepG2 PBox CC20 μMc,HepG2; [5],18.5 µM
COc1ccc(N(CCc2cccc(C)n2)C(C)=O)cc1 [MMV675995],HepG2 PBox CC20 μMc,HepG2; [5],>80 µM
Cc1nnc(NCc2cccc(Cl)c2)c2ccccc12 [MMV676555],CC50,HepG2; [4],76 µM
O=C(Nc1nnc(-c2ccc(Cl)cc2)o1)c1cccc(C(F)(F)F)c1 [MMV102872],CC50,HepG2; [4],9 µM
CCOC(=O)c1cc(-c2csc(Nc3c(C)cc(C)cc3C)n2)on1 [MMV676461],CC50,HepG2; [4],24.4 µM
O=C(NC1CCCCC1)N1CCN(Cc2ccc3c(c2)OCO3)CC1 [MMV676444],CC50,HepG2; [4],> 100 µM
Cn1ccnc1CNCCS(=O)(=O)c1cccc(Nc2ccc(-c3cccc(F)c3)cn2)c1 [MMV688466],CC50,HepG2; [6],46.1 µM
Cc1cc(NCCc2ccccc2)nc(NC(=N)Nc2ccc(Cl)cc2)n1 [MMV021660],EC50,P. falciparum ABS; TCMDC set,0.23 µM
same,IC50,[1]; [3],0.16 µM
same,CC50,HepG2; [4],6.5 µM
same,inhibition at 20 µM,HEK293 cells,100%
Nc1c2c(nc3sc4c(c13)CCCC4)CCCC2 [MMV676588],CC50,HepG2; [4],34.9 µM
Nc1ncnc2c1ncn2[C@@H]1O[C@H](COS(=O)(=O)NC(=O)c2ccccc2O)[C@@H](O)[C@H]1O [MMV687700],CC50,HepG2; [4],> 100 µM
O=C1O[C@@H](CO)CN1c1cc(F)c(C2=CCN(Cc3ccccc3)CC2)c(F)c1 [MMV687729],CC50,HepG2,38.8 µM
COc1ccc(-c2nnc3ccc(-c4cccc(C(C)C)c4)cn23)cc1OC [MMV688313],HepG2 PBox CC20 μMc,HepG2; [5],7.5 µM
Cc1ccccc1C(=O)N1N=C(Nc2ccccc2)SC1(C)C [MMV688771],HepG2 PBox CC20 μMc,HepG2; [5],8 µM
CC(=O)NCC1CN(c2ccc(-c3ccc(CNCc4cn[nH]n4)cc3)c(F)c2)C(=O)O1 (stereo not shown) [MMV688327],CC50,HepG2; [4],> 100 µM
CS(=O)(=O)N1CCC(Cn2nc(Cc3cccc4ccccc34)c3c(N)ncnc32)CC1 [MMV676050],HepG2 PBox CC20,HepG2; [7],53 µM
same,inhibition at 20 µM,HEK293 cells,77%
c1ccc(Oc2ccc(-c3cncc(-c4ccc5[nH]ccc5c4)n3)cc2)cc1 [MMV688178],HepG2 PBox CC20 μMc,HepG2; [5],25.7 µM
Cc1[nH]c2cc(F)cc(F)c2c(=O)c1-c1ccc(Oc2ccc(OC(F)(F)F)cc2)cc1 [MMV671636],IC50,"[1]; 3D7, read-out: Antiplasmodial IC50 (ABS)",1.01 µM
same,HepG2 PBox CC20 μMc,HepG2; [5],>80 µM
same,IC50,HEK293 cells,> 20 µM
CC1COC2(CCN(c3nc(=O)c4cc(C(F)(F)F)cc([N+](=O)[O-])c4s3)CC2)O1 (stereo not shown) [MMV676603],CC50,HepG2; [4],> 100 µM
FC(F)(F)c1nnc2ccc(Cl)nn12 [MMV069458],CC50,HepG2; [4],> 100 µM
Cc1cc(C)cc(COc2ccc3c(C)c(CCC(=O)O)c(=O)oc3c2C)c1 [MMV676476],CC50,HepG2; [4],> 100 µM
COc1cccc(OC)c1C(=O)Nc1ccc(Cl)c(-c2nc3ccccc3s2)c1 [MMV676472],CC50,HepG2; [4],> 100 µM
CCc1nc2ccccc2n1CC(O)COc1cc(C)ccc1Cl (stereo not shown) [MMV676449],CC50,HepG2; [4],43.2 µM
CNCCC(Oc1ccc(C(F)(F)F)cc1)c1ccccc1 (stereo not shown) [MMV001561],HepG2 PBox CC20,HepG2; [7],9.0 µM
N#Cc1nc(-c2ccccc2F)oc1NCCc1ccccc1 [MMV676384],CC50,HepG2; [4],> 100 µM
O=C(Nc1nnc(-c2ccc(Cl)s2)o1)c1ccc(Cl)s1 [MMV676501],CC50,HepG2; [4],50.1 µM
COc1ccc(C2(C(=O)Nc3ccc(Br)cc3)CCCC2)cc1 [MMV200748],CC50,HepG2; [4],> 100 µM
CCS(=O)(=O)N(Cc1ccco1)Cc1cc2ccc(C)cc2nc1O [MMV676398],HepG2 PBox CC20 μMc,HepG2; [5],>80 µM
O=C(Nc1nnc(S)s1)c1cc(Br)ccc1Cl [MMV676492],HepG2 PBox CC20 μMc,"HepG2; HepG2 CC20, ref Pathogen Box supporting information",>80 µM
NC(=O)c1cc(-c2ccsc2)ccc1OCCOc1ccccc1 [MMV687138],CC50,HepG2; [4],> 100 µM
O=C(NCc1ccoc1)N1CCN(Cc2ccc3c(c2)OCO3)CC1 [MMV688553],CC50,HepG2; [6],> 100 µM
CC(C)(C)c1cnc(NC(=O)c2ccccc2O)s1 [MMV495543],CC50,HepG2; [4],47.6 µM
same,IC50,[2],5.45 µM
CCCCOC(=O)Nc1cc2nc(C3CCCCC3)[nH]c2cc1N1CCCC1 [MMV687730],CC50,HepG2; [4],26.8 µM
COc1cc(NC(=O)Cc2nn(C)c(=O)c3ccccc23)ccc1Cl [MMV676053],HepG2 PBox CC20,HepG2; [7],>80 µM
CCCCc1ccc(C(=O)Nc2nccc3ccccc23)nc1 [MMV687254],CC50,HepG2; [4],73.8 µM
COc1ccc(-c2cc(NC(=O)c3ccc(F)cc3Cl)ccc2OC)cc1 [MMV676526],CC50,HepG2; [4],> 100 µM
CC1(C)OB(O)c2ccc(C3=NOC(c4cc(Cl)c(F)c(Cl)c4)(C(F)(F)F)C3)cc21 (stereo not shown) [MMV687775],HepG2 PBox CC20 μMc,HepG2,15.4 µM
CC(C)(C)n1nc(Cc2cccc3ccccc23)c2c(N)ncnc21 [MMV676599],HepG2 PBox CC20,HepG2; [7],19 µM
CC1(C)Cc2c(c(N3CCOCC3)nc3snc(Br)c23)CO1 [MMV687794],IC50,P. falciparum ABS,0.29 µM
same,IC50,HEK293 cells,> 20 µM
CC(C)(C)OC(=O)N1CCN(c2nccc(-c3ccc(-c4ccc(Cl)cc4)s3)n2)CC1 [MMV688416],CC50,HepG2; [6],> 50 µM
COc1ccc2nc(C)cc(OCC(=O)Nc3ccccc3OC)c2c1 [MMV687188],CC50,HepG2; [4],57.4 µM
CCc1nc2ccc(C(=O)NCc3ccc4c(c3)OCO4)cn2c1N(C)Cc1cccs1 [MMV407539],HepG2 PBox CC20 μMc,HepG2; [5],18.6 µM
COc1ccc(Nc2ccccc2NC(=O)c2ccc(O)nc2)cc1 [MMV676554],CC50,HepG2; [4],42.5 µM
O=C(NCc1cc(Cl)cc(Cl)c1)c1c(C(F)(F)F)nc2ccccn12 [MMV687699],CC50,HepG2; [4],38.3 µM
Brc1c(-c2ccc3c(c2)OCO3)nc2ncccn12 [MMV676377],CC50,HepG2; [4],> 100 µM
COc1ccc(-c2nc(-c3cccc(NC(=O)Cc4ccc(F)cc4)c3)no2)cc1OC [MMV676571],CC50,HepG2; [4],> 100 µM
CC1(COc2ccc(N3CCC(Oc4ccc(OC(F)(F)F)cc4)CC3)cc2)Cn2cc([N+](=O)[O-])nc2O1 (stereo not shown) [MMV688262],CC50,HepG2; [4],72.5 µM
NCC(c1cccs1)S(=O)(=O)c1ccccc1 (stereo not shown) [MMV688557],CC50,HepG2; [6],35.4 µM
CCc1ccc([C@@H]2C[C@H](C(F)(F)F)n3ncc(C(=O)NCc4ccc(OC)cc4)c3N2)cc1 [MMV687180],CC50,HepG2; [4],50.6 µM
NC(=O)c1cc(Br)ccc1OCCOc1ccccc1 [MMV687243],CC50,HepG2; [4],> 100 µM
Cc1cccc(Cn2ccc(NC(=O)c3ccc4c(c3)OCO4)n2)c1 [MMV676386],CC50,HepG2; [4],> 100 µM
CCc1ccc(S(=O)(=O)Nc2cc(CN3CCN(CCC(C)C)CC3)ccc2C)cc1 [MMV688124],CC50,HepG2; [4],27.4 µM
